Experimental data from patent US7592160B2, “Processes for producing isomaltose and isomaltitol and use thereof” (Kabushiki Kaisha Hayashibara Seibutsu Kagaku Kenkyujo, priority 2001, dated 2009).

How the values were obtained:
Set-up in all cases: key: −: no saccharide-transferred product was detected through transfer reaction to acceptor; ±: a saccharide-transferred product was detected in an amount less than one percent through transfer reaction to acceptor; +: a saccharide-transferred product was detected in an amount over one percent but less than 10% through transfer reaction to acceptor; ++: a saccharide-transferred product was detected in an amount over ten percent through transfer reaction to acceptor
[1] = tested on: α-isomaltosylglucosaccharide-forming enzyme; test: Transfer-acceptor specificity, enzyme of A19 strain; assay type: biochemical, Arthrobacter globiformis A19 strain; conditions: acceptor 1.6%, PINE-DEX #100 donor 4%, one unit/g donor, 30° C., pH 8.4, 24 hours
Experimental: (§1) Using various saccharides, it was tested whether the saccharides were used as transferring-acceptors for α-isomaltosylglucosaccharide-forming enzyme. A solution of D-glucose, D-xylose, L-xylose, D-galactose, D-fructose, D-mannose, D-arabinose, D-fucose, D-psicose, L-sorbose, L-rhamnose, methyl-α-glucopyranoside, methyl-β-glucopyranoside, N-acetyl-glucosamine, sorbitol, α,α-trehalose, isomaltose, isomaltotriose, cellobiose, gentibiose, glycerol, maltitol, lactose, sucrose, α-cyclodextrin, β-cyclodextrin, γ-cyclodextrin, or L-ascorbic acid was prepared. To each solution with a saccharide concentration of 1.6% was added “PINE-DEX #100”, a partial starch hydrolyzate, as a saccharide donor, to give a concentration of 4%, and admixed with one unit/g saccharide donor, d.s.b., of either of purified specimens of α-isomaltosylglucosaccharide-forming enzyme from Bacillus globisporus C9 strain obtained by the method in Experiment 4-2, Bacillus globisporus C11 strain obtained by the method in Experiment 7-2, Bacillus globisporus N75 strain obtained by the method in Experiment 11-2, or Arthrobacter globiformis A19 strain obtained by the method in Experiment 15-2, and incubated at 30° C. and pH 6.0 for 24 hours, except that pH 8.4 was used for the enzyme from Arthrobacter globiformis A19 strain. The reaction mixtures of the post-enzymatic reactions were analyzed on gas chromatography (abbreviated as “GLC” hereinafter) for monosaccharides and disaccharides as acceptors, and on HPLC for trisaccharides as acceptors to confirm whether these saccharides could be used as the transfer acceptors of the above enzymes. In the case of performing GLC, the following apparatuses and conditions were used: GLC apparatus, “GC-16A” commercialized by Shimadzu Corporation, Tokyo, Japan; column, a stainless-steel column, 3 mm in diameter and 2 m in length, packed with 2% “SILICONE OV-17/CHROMOSOLV W”, commercialized by GL Sciences Inc., Tokyo, Japan; carrier gas, nitrogen gas at a flow rate of 40 ml/min under temperature conditions of increasing from 160° C. to 320° C. at an increasing temperature rate of 7.5° C./min; and detection, a hydrogen flame ionization detector. In the case of performing HPLC analysis, the following apparatuses and conditions were used: HPLC apparatus, “CCPD” commercialized by Tosoh Corporation, Tokyo, Japan; column, “ODS-AQ-303” commercialized by YMC Co., Ltd., Tokyo, Japan; eluent, water at a flow rate of 0.5 ml/min; and detection, a differential refractometer.

[2] = tested on: α-isomaltosylglucosaccharide-forming enzyme; test: Transfer-acceptor specificity, enzyme of N75 strain; assay type: biochemical, Bacillus globisporus N75 strain; conditions: acceptor 1.6%, PINE-DEX #100 donor 4%, one unit/g donor, 30° C., pH 6.0, 24 hours
Experimental: as §1

[3] = tested on: α-isomaltosylglucosaccharide-forming enzyme; test: Transfer-acceptor specificity, enzyme of C9 strain; assay type: biochemical, Bacillus globisporus C9 strain; conditions: acceptor 1.6%, PINE-DEX #100 donor 4%, one unit/g donor, 30° C., pH 6.0, 24 hours
Experimental: as §1

[4] = tested on: α-isomaltosylglucosaccharide-forming enzyme; test: Transfer-acceptor specificity, enzyme of C11 strain; assay type: biochemical, Bacillus globisporus C11 strain; conditions: acceptor 1.6%, PINE-DEX #100 donor 4%, one unit/g donor, 30° C., pH 6.0, 24 hours
Experimental: as §1

SMILES	Product of transferring reaction, Enzyme of A19 strain [1]	Product of transferring reaction, Enzyme of N75 strain [2]	Product of transferring reaction, Enzyme of C9 strain [3]	Product of transferring reaction, Enzyme of C11 strain [4]
O=C[C@H](O)[C@@H](O)[C@H](O)[C@H](O)CO [D-Glucose, D-glucose]	+ (a saccharide-transferred product was detected in an amount over one percent but less than 10% through transfer reaction to acceptor)	+ (a saccharide-transferred product was detected in an amount over one percent but less than 10% through transfer reaction to acceptor)	+ (a saccharide-transferred product was detected in an amount over one percent but less than 10% through transfer reaction to acceptor)	+ (a saccharide-transferred product was detected in an amount over one percent but less than 10% through transfer reaction to acceptor)
O=C[C@H](O)[C@@H](O)[C@H](O)CO [D-Xylose, D-xylose]	+ (a saccharide-transferred product was detected in an amount over one percent but less than 10% through transfer reaction to acceptor)	++ (a saccharide-transferred product was detected in an amount over ten percent through transfer reaction to acceptor)	++ (a saccharide-transferred product was detected in an amount over ten percent through transfer reaction to acceptor)	++ (a saccharide-transferred product was detected in an amount over ten percent through transfer reaction to acceptor)
O=C[C@@H](O)[C@H](O)[C@H](O)CO [D-Arabinose, D-arabinose]	± (a saccharide-transferred product was detected in an amount less than one percent through transfer reaction to acceptor)	± (a saccharide-transferred product was detected in an amount less than one percent through transfer reaction to acceptor)	± (a saccharide-transferred product was detected in an amount less than one percent through transfer reaction to acceptor)	± (a saccharide-transferred product was detected in an amount less than one percent through transfer reaction to acceptor)
OCC(O)CO [Glycerol, glycerol]	+ (a saccharide-transferred product was detected in an amount over one percent but less than 10% through transfer reaction to acceptor)	+ (a saccharide-transferred product was detected in an amount over one percent but less than 10% through transfer reaction to acceptor)	+ (a saccharide-transferred product was detected in an amount over one percent but less than 10% through transfer reaction to acceptor)	+ (a saccharide-transferred product was detected in an amount over one percent but less than 10% through transfer reaction to acceptor)
OC[C@H]1O[C@@H]2O[C@H]3[C@H](O)[C@@H](O)[C@@H](O[C@H]4[C@H](O)[C@@H](O)[C@@H](O[C@H]5[C@H](O)[C@@H](O)[C@@H](O[C@H]6[C@H](O)[C@@H](O)[C@@H](O[C@H]7[C@H](O)[C@@H](O)[C@@H](O[C@H]8[C@H](O)[C@@H](O)[C@@H](O[C@H]1[C@H](O)[C@H]2O)O[C@@H]8CO)O[C@@H]7CO)O[C@@H]6CO)O[C@@H]5CO)O[C@@H]4CO)O[C@@H]3CO [β-Cyclodextrin, β-cyclodextrin]	−	−	−	−
OC[C@H]1O[C@@H]2O[C@H]3[C@H](O)[C@@H](O)[C@@H](O[C@H]4[C@H](O)[C@@H](O)[C@@H](O[C@H]5[C@H](O)[C@@H](O)[C@@H](O[C@H]6[C@H](O)[C@@H](O)[C@@H](O[C@H]7[C@H](O)[C@@H](O)[C@@H](O[C@H]1[C@H](O)[C@H]2O)O[C@@H]7CO)O[C@@H]6CO)O[C@@H]5CO)O[C@@H]4CO)O[C@@H]3CO [α-Cyclodextrin, α-cyclodextrin]	−	−	−	−
C[C@@H](O)[C@H](O)[C@H](O)[C@@H](O)C=O [D-Fucose, D-fucose]	± (a saccharide-transferred product was detected in an amount less than one percent through transfer reaction to acceptor)	+ (a saccharide-transferred product was detected in an amount over one percent but less than 10% through transfer reaction to acceptor)	+ (a saccharide-transferred product was detected in an amount over one percent but less than 10% through transfer reaction to acceptor)	+ (a saccharide-transferred product was detected in an amount over one percent but less than 10% through transfer reaction to acceptor)
O=C(CO)[C@@H](O)[C@H](O)[C@@H](O)CO [L-Sorbose, L-sorbose]	+ (a saccharide-transferred product was detected in an amount over one percent but less than 10% through transfer reaction to acceptor)	+ (a saccharide-transferred product was detected in an amount over one percent but less than 10% through transfer reaction to acceptor)	+ (a saccharide-transferred product was detected in an amount over one percent but less than 10% through transfer reaction to acceptor)	+ (a saccharide-transferred product was detected in an amount over one percent but less than 10% through transfer reaction to acceptor)
CO[C@@H]1O[C@H](CO)[C@@H](O)[C@H](O)[C@H]1O [Methyl-β-glucopyranoside, methyl-β-glucopyranoside]	++ (a saccharide-transferred product was detected in an amount over ten percent through transfer reaction to acceptor)	++ (a saccharide-transferred product was detected in an amount over ten percent through transfer reaction to acceptor)	++ (a saccharide-transferred product was detected in an amount over ten percent through transfer reaction to acceptor)	++ (a saccharide-transferred product was detected in an amount over ten percent through transfer reaction to acceptor)
